The test system of assay [1] is MCAO rats. Kind of assay: Combined Middle Cerebral and Ipsilateral Common Carotid Occlusion in the Rat (MCAO): collateral zone and hemispheric infarct. Type of assay: in vivo, Adult male Fisher (F-344) rats. Particulars: for response vs control in vivo at 3 mg/kg: 3 mg/kg IP; for response vs control in vivo at 15 mg/kg: 15 mg/kg IP. From the text:
Occlusion of the proximal part of the middle cerebral artery (MCA) is a common cause of stroke in man and can be accomplished surgically in experimental animals. […] We have combined distal MCA occlusion with ipsilateral common carotid ligation in an attempt to produce reproducible,focal cerebral ischemic infarcts.
The skin on the ventral side of the neck and the left temporal-parietal region was shaved. An incision was made in the neck and the left common carotid artery was doubly ligated and cut between the sutures. The incision was closed with 4-0 silk. Another incision was then made behind the left eye and the skin was held back with retractors. The exposed temporalis muscle was electrocauterized (Jarit Bipolar Coagulator) and partially removed. The upper part of the lower jaw bone was also removed. Deep surgery was performed with the aid of a Zeiss OPMI 99 surgical microscope. A 1 to 2-mm diameter craniotomy was made about 1 mm anterior to where the rostral end of the zygoma fuses to the squamosal bone. To prevent the drill from going through the dura, the burr hole was not drilled completely through the skull. Bone remaining after drilling was removed with forceps. The dura was pierced and reflected with a fine probe.
At this point the rat was injected with 0.3 ml of 2% Evans blue dye in saline via the tail vein. Evans blue binds to serum albumin and will not pass the blood-brain barrier unless damage has occurred, such as damage induced by ischemia. A small hook was then positioned under the MCA and the MCA was lifted away from the cortex. A jeweler-type bipolar forceps was introduced and the MCA was electrocauterized and separated. Gelfoam was put over the craniotomy and the wound was closed with 4-0 silk. The rats were then taken off the halothane and were allowed to wake up. Total anesthesia time was typically 30 minutes.
On Day 2 following MCA occlusion, the rats were anesthetized with ketamine (150 mg/kg, IP) and sacrificed. Cerebral tissue fixation was initiated by perfusion of 10% neutralized, buffered formalin for five minutes. Brains were removed and stored in the fixative until analysis.
For evaluation of the extent of cerebral ischemic injury, the brains were cut coronally in three different locations. The first section was at the level where the MCA was ligated. The other two sections were 2 mm anterior and 2 mm posterior to the first. Using an ausJena Citoval microscope with a drawing tube and an Apple II plus computer with a Houston Instrument digitizing pad, a software routine to measure the area of the ischemic damage as indicated by the extent of Evans blue tissue extravasation was employed. The software package was purchased from R&M Biometrics (Nashville, Tenn.) and is titled Bioquant II. From the lesion areas (mm^2) obtained from the Bioquant II program, we estimated the hemispheric extent (mm^3) of ischemic damage between the anterior and posterior sections by computing and adding the volume of two truncated cones.
The Bioquant II image analysis system was used to quantitate ischemic injury as it was identified by Evans blue extravasation.

The test system of assay [2] is rats. Kind of assay: Anesthesia in rats after dosing (impaired consciousness, lack of righting reflex; duration). Type of assay: in vivo, Adult male Fisher (F-344) rats. Particulars: time from administration to regaining consciousness. An excerpt:
The duration of anesthesia is that time elapsed between administration of the test substance and the test animal regaining consciousness.

The mark [3] stands for this setting: 10 mg/kg IP, 30 min and 24 h after occlusion, historical controls, read-out: Collateral Zone Infarct (% of Control).
Where [4] appears, read: 10 mg/kg IP, 30 min and 24 h after occlusion, historical controls, read-out: Hemispheric Infarct (% of Control).
Setting [5] is: 30 mg/kg IP, 30 min and 24 h after occlusion, historical controls, read-out: Collateral Zone Infarct (% of Control).
Setting [6] is: 30 mg/kg IP, 30 min and 24 h after occlusion, historical controls, read-out: Hemispheric Infarct (% of Control).
The mark [7] stands for this setting: 30 min and 24 h after occlusion, historical controls, read-out: Collateral Zone Infarct (% of Control).
Where [8] appears, read: 30 min and 24 h after occlusion, historical controls, read-out: Hemispheric Infarct (% of Control).
Where [9] appears, read: ip, read-out: Collateral Zone Infarct (% of Control).
Setting [10] is: ip, read-out: Hemispheric Infarct (% of Control).

The values below come from US4971983A, “Substituted 2-aminobenzothiazoles and derivatives useful as cerebrovascular agents” (Warner-Lambert Company, priority 1989, dated 1990).

SMILES strings stand for the structures. Where two headings read alike, the source gives them in different places.

With `Nc1nc2c(ccc3ccccc32)s1` [Compound 20, 2-amino-naptho[1,2-d]thiazole], the response vs control in vivo at 10 mg/kg is 63% in assay [1] (setting [3]) and 84% in assay [1] (setting [4]). The response vs control in vivo at 30 mg/kg in assay [1] (setting [5]) was found to be 81%; in assay [1] (setting [6]), 92%.
Regarding `Nc1nc2ccc(Br)cc2s1` [Compound 7, 2-amino-6-bromobenzothiazole], the “Anesthesia (duration)” value in assay [2] (30 mg/kg IP) was greater than 5 h. The values for the response vs control in vivo at 10 mg/kg in assay [1] (setting [3]) and in assay [1] (setting [4]) were 69% and 88%, respectively. In addition, the response vs control in vivo at 30 mg/kg in assay [1] (setting [5]) is 59%; in assay [1] (setting [6]), 68%.
The corresponding values for `Nc1nc2ccc([N+](=O)[O-])cc2s1` [Compound 8, 2-amino-6-nitrobenzothiazole] are 4 h, 92%, 93%, 24% and 62%.
`Cc1cccc2sc(N)nc12` [Compound 14, 2-amino-4-methylbenzothiazole]: the values for the response vs control in vivo at 10 mg/kg in assay [1] (setting [3]) and in assay [1] (setting [4]) were 69% and 72%, respectively. Further, the response vs control in vivo at 30 mg/kg in assay [1] (setting [5]) is 40%; in assay [1] (setting [6]) it was 54%.
As to `Cc1cc(C)c2nc(N)sc2c1` [Compound 12, 2-amino-4,6-dimethylbenzothiazole], the figures for the response vs control in vivo at 10 mg/kg in assay [1] (setting [3]) and in assay [1] (setting [4]) were 91% and 79%, respectively. Moreover, the response vs control in vivo at 30 mg/kg worked out at 68% in assay [1] (setting [5]) and 76% in assay [1] (setting [6]).
Regarding `Nc1nc2ccc(C(F)(F)F)cc2s1` [Compound 10, 2-amino-6-trifluoromethylbenzothiazole], the response vs control in vivo at 3 mg/kg in assay [1] (setting [7]) was found to be 156%; in assay [1] (setting [8]) it was 131%. Further, the results for the response vs control in vivo at 10 mg/kg in assay [1] (setting [3]) and in assay [1] (setting [4]) were 51% and 53%, respectively.
For the compound `Nc1nc2c(F)cc(F)cc2s1` [Compound 17, 2-amino-4,6-difluorobenzothiazole], the response vs control in vivo at 10 mg/kg in assay [1] (setting [3]) was 137%; in assay [1] (setting [4]) it was 139%. The response vs control in vivo at 30 mg/kg came to 105% in assay [1] (setting [5]) and 115% in assay [1] (setting [6]).
For the compound `c1ccc(CNc2nc3ccccc3s2)cc1` [Compound 22, N-benzyl-2-benzothiazolamine], the response vs control in vivo at 10 mg/kg in assay [1] (setting [3]) amounted to 56%; in assay [1] (setting [4]), 76%. Also, the response vs control in vivo at 30 mg/kg turned out to be 98% in assay [1] (setting [5]) and 89% in assay [1] (setting [6]).
For the compound `CCOc1ccc2nc(N)sc2c1` [Compound 6, 2-amino-6-ethoxybenzothiazole], the response vs control in vivo at 10 mg/kg came out at 94% in assay [1] (setting [3]) and 115% in assay [1] (setting [4]). Moreover, the response vs control in vivo at 30 mg/kg is 16% in assay [1] (setting [5]) and 59% in assay [1] (setting [6]).
On to `Nc1nc2ccc(OC(F)(F)F)cc2s1` [Compound 9, 2-amino-6-trifluoromethoxybenzothiazole], for which the “Anesthesia (duration)” value in assay [2] (30 mg/kg IP) was in the range of 1 to 2 h. Further, the response vs control in vivo at 3 mg/kg in assay [1] (setting [7]) is 117%; in assay [1] (setting [8]), 99%. The response vs control in vivo at 10 mg/kg in assay [1] (setting [3]) is 43%; in assay [1] (setting [4]), 66%. Also, the response vs control in vivo at 15 mg/kg was found to be 42% in assay [1] (setting [7]) and 82% in assay [1] (setting [8]). For the same compound, the response vs control in vivo at 30 mg/kg in assay [1] (setting [5]) was determined as 0%; in assay [1] (setting [6]) it was 44%.
As for `Nc1nc2cc(C(F)(F)F)ccc2s1` [Compound 19, 2-amino-5-trifluoromethylbenzothiazole], the values for the response vs control in vivo at 10 mg/kg in assay [1] (setting [3]) and in assay [1] (setting [4]) were 48% and 63%, respectively. Further, the response vs control in vivo at 30 mg/kg in assay [1] (setting [5]) was found to be 53%; in assay [1] (setting [6]) it was 79%.
On the same counts, the results for `CSc1ccc2nc(N)sc2c1` [Compound 2, 2-amino-6-methylthiobenzothiazole] are 72%, 88%, 100% and 106%.
On to `COc1ccc2sc(N)nc2c1` [Compound 18, 2-amino-5-methoxybenzothiazole], for which the response vs control in vivo at 10 mg/kg in assay [1] (setting [9]) was determined as 124%; in assay [1] (setting [10]), 117%. In addition, the response vs control in vivo at 30 mg/kg in assay [1] (setting [9]) was 54%; in assay [1] (setting [10]) it was 82%.
`CCNc1nc2ccccc2s1` [Compound 21, 2-ethylaminobenzothiazole]: the response vs control in vivo at 10 mg/kg in assay [1] (setting [3]) is 62%; in assay [1] (setting [4]), 71%. Also, the response vs control in vivo at 30 mg/kg in assay [1] (setting [5]) stood at 116%; in assay [1] (setting [6]), 89%.
The corresponding values for `CS(=O)(=O)c1ccc2nc(N)sc2c1` [Compound 4, 2-amino-6-methylsulphonylbenzothiazole] are 77%, 83%, 58% and 86%.
In the case of `CN1CCCC1CCNc1nc2ccccc2s1` (centres unmarked) [Compound 23, 2-[[2-(1-methyl-2-pyrrolidinyl)ethyl]amino]-benzothiazole], the values for the response vs control in vivo at 10 mg/kg in assay [1] (setting [3]) and in assay [1] (setting [4]) were 66% and 84%, respectively. The response vs control in vivo at 30 mg/kg was 18% in assay [1] (setting [5]) and 72% in assay [1] (setting [6]).
Turning to `COc1cccc2sc(N)nc12` [Compound 13, 2-amino-4-methoxybenzothiazole], the “Anesthesia (duration)” value in assay [2] (10 mg/kg IP) was greater than 5 h. Moreover, the response vs control in vivo at 3 mg/kg in assay [1] (setting [7]) amounted to 85%; in assay [1] (setting [8]), 90%. Moreover, the response vs control in vivo at 10 mg/kg in assay [1] (setting [3]) stood at 115%; in assay [1] (setting [4]) it was 121%.
Take `Nc1nc2c(C(F)(F)F)cccc2s1` [Compound 16, 2-amino-4-trifluoromethylbenzothiazole]: the response vs control in vivo at 10 mg/kg in assay [1] (setting [3]) worked out at 63%; in assay [1] (setting [4]) it was 99%. The values for the response vs control in vivo at 30 mg/kg in assay [1] (setting [5]) and in assay [1] (setting [6]) were 15% and 61%, respectively.
